This assay has as its target T1, Human BCL-XL protein (N-terminal HiBiT tagged BCL-XL in HT1080 cells) (Homo sapiens, UniProt Q07817).
T1 construct: expressed in transfected cells; host or cells: HT-1080 (ATCC CCL-121), stably transduced with lentivirus pLV-UBC-N-HiBiT-BCL-XL-PGK-puro and selected with puromycin
Description: HiBiT based degradation assay. The settings on record: HT1080 cells expressing HiBiT-BCL-XL; for Ymin (24 h) / Ymin (6 h): BCL-XL degradation normalized with DMSO control; for DC50: BCL-XL degradation. In kind it is cell-based. The procedure, abridged:
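This HiBiT degradation assay measured loss of BCL-XL in HT1080 cells that stably express an N-terminal HiBiT-BCL-XL fusion delivered by lentivirus. Cells were added to compound-spotted 384-well plates, and luminescence was read on a PHERAstar FSX reader. Signal was expressed relative to DMSO controls, curves were fitted by four-parameter logistic regression, and for hook-shaped curves the Ymin point served as the bottom plateau when calculating EC50.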

Read-outs that look alike come from different tables or passages of the source. Some results are limits rather than exact numbers.

T1 sequence (Q07817 whole entry): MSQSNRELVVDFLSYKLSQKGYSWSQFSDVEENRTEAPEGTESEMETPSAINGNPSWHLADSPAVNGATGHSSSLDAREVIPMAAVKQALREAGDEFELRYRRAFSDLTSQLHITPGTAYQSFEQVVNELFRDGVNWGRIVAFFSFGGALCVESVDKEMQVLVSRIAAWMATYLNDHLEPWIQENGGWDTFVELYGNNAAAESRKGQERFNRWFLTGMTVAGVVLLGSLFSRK

In the case of `Cc1c(CCCOC2CCN(CC(=O)Nc3ccc4c(C5CCC(=O)NC5=O)nn(C)c4c3)CC2)cccc1-c1ccc(N2CCc3cccc(C(=O)Nc4nc5ccccc5s4)c3C2)nc1C(=O)O` (stereo not shown) [Compound 290, 6-[8-(1,3-benzothiazol-2-ylcarbamoyl)-3,4-dihydro-1H-isoquinolin-2-yl]-3-[3-[3-[[1-[2-[[3-(2,6-dioxo-3-piperidyl)-1-methyl-indazol-6-yl]amino]-2-oxo-ethyl]-4-piperidyl]oxy]propyl]-2-methyl-phenyl]pyridine-2-carboxylic acid], the “Ymin (24 h)” value (24 h) is on record as “A (Ymin < 50%)”. The DC50 (24 h, read-out: EC50 (24 h)) was under 100 nM.

In the case of `Cc1c(OCC(F)(F)CN2C[C@@H](C)N(CC(=O)N3CCN(c4ccc5c(C6CCC(=O)NC6=O)nn(C)c5c4)CC3)[C@@H](C)C2)cccc1-c1ccc(N2CCc3cccc(C(=O)Nc4nc5ccccc5s4)c3C2)nc1C(=O)O` (stereo partly drawn) [Compound 185a, 6-[8-(1,3-benzothiazol-2-ylcarbamoyl)-3,4-dihydro-1H-isoquinolin-2-yl]-3-[3-[3-[(3R,5S)-4-[2-[4-[3-(2,6-dioxo-3-piperidyl)-1-methyl-indazol-6-yl]piperazin-1-yl]-2-oxo-ethyl]-3,5-dimethyl-piperazin-1-yl]-2,2-difluoro-propoxy]-2-methyl-phenyl]pyridine-2-carboxylic acid], the “Ymin (24 h)” value (24 h) is on record as “A (Ymin < 50%)”. Also, the DC50 (24 h, read-out: EC50 (24 h)) is under 100 nM.

With `Cc1c(O[C@H]2CC[C@H](CC[C@@H](C)N3CCN(c4ccc5c(C6CCC(=O)NC6=O)nn(C)c5c4)CC3)CC2)cccc1-c1ccc(N2CCc3cccc(C(=O)Nc4nc5ccccc5s4)c3C2)nc1C(=O)O` (single isomer, unassigned) [Compound 281b], under “24 h”, the “Ymin (24 h)” value is “A (Ymin < 50%)”. Besides, the DC50 (24 h, read-out: EC50 (24 h)) was under 100 nM.

As to `Cc1cc(O[C@H]2CC[C@H](CCCN3CCN(c4cccc5c(C6CCC(=O)NC6=O)nn(C)c45)CC3)CC2)ccc1-c1ccc(N2CCc3cccc(C(=O)Nc4nc5ccccc5s4)c3C2)nc1C(=O)O` (stereo partly shown) [Compound 250a, 6-(8-(benzo[d]thiazol-2-ylcarbamoyl)-3,4-dihydroisoquinolin-2(1H)-yl)-3-(4-(((1s,4r)-4-(3-(4-(3-(2,6-dioxopiperidin-3-yl)-1-methyl-1H-indazol-7-yl)piperazin-1-yl)propyl)cyclohexyl)oxy)-2-methylphenyl)picolinic acid], the “Ymin (24 h)” value (24 h) was “A (Ymin < 50%)”. In addition, the DC50 (24 h, read-out: EC50 (24 h)) is under 100 nM.

Consider `Cc1c(-c2ccc(N3CCc4cccc(C(=O)Nc5nc6ccccc6s5)c4C3)nc2C(=O)NCCCCCCCCCCCC(=O)Nc2ccc3c(C4CCC(=O)NC4=O)nn(C)c3c2)cnn1CC12CC3CC(CC(C3)C1)C2` (stereo not shown) [Compound 113, 2-(5-(1-((3r,5r,7r)-adamantan-1-ylmethyl)-5-methyl-1H-pyrazol-4-yl)-6-((12-((3-(2,6-dioxopiperidin-3-yl)-1-methyl-1H-indazol-6-yl)amino)-12-oxododecyl)carbamoyl)pyridin-2-yl)-N-(benzo[d]thiazol-2-yl)-1,2,3,4-tetrahydroisoquinoline-8-carboxamide], for which the “Ymin (6 h)” value (6 h) is “B (50% ≤ Ymin < 70%)”. The DC50 (6 h, read-out: EC50 (6 h)) is 100 to 1000 nM.

Regarding `Cc1c(O[C@H]2CC[C@H](CCCN3CCN(c4ccc5c(C6CCC(=O)NC6=O)nn(C)c5c4)CC3(C)C)CC2)cccc1-c1ccc(N2CCc3cccc(C(=O)Nc4nc5ccccc5s4)c3C2)nc1C(=O)O` (stereo partly shown) [Compound 336a, 6-(8-(benzo[d]thiazol-2-ylcarbamoyl)-3,4-dihydroisoquinolin-2(1H)-yl)-3-(3-(((1s,4r)-4-(3-(4-(3-(2,6-dioxopiperidin-3-yl)-1-methyl-1H-indazol-6-yl)-2,2-dimethylpiperazin-1-yl)propyl)cyclohexyl)oxy)-2-methylphenyl)picolinic acid], the “Ymin (24 h)” value (24 h) is recorded as “A (Ymin < 50%)”. In addition, the DC50 (24 h, read-out: EC50 (24 h)) was under 100 nM.

In the case of `Cc1cc(O[C@H]2CC[C@H](CCC(=O)N3CCN(c4ccc5c(C6CCC(=O)NC6=O)nn(C)c5c4)CC3)CC2)ccc1-c1ccc(N2CCc3cccc(C(=O)Nc4nc5ccccc5s4)c3C2)nc1C(=O)O` (stereo partly shown) [Compound 251a, 6-(8-(benzo[d]thiazol-2-ylcarbamoyl)-3,4-dihydroisoquinolin-2(1H)-yl)-3-(4-(((1r,4r)-4-(3-(4-(3-(2,6-dioxopiperidin-3-yl)-1-methyl-1H-indazol-6-yl)piperazin-1-yl)-3-oxopropyl)cyclohexyl)oxy)-2-methylphenyl)picolinic acid], the “Ymin (24 h)” value (24 h) was “A (Ymin < 50%)”. Moreover, the DC50 (24 h, read-out: EC50 (24 h)) is under 100 nM.

On to `Cc1c(O[C@H]2CC[C@H](CC(=O)N3CCN(c4ccc5c(C6CCC(=O)NC6=O)nn(C)c5c4)CC3)CC2)cccc1-c1ccc(N2CCc3cccc(C(=O)Nc4nc5ccccc5s4)c3C2)nc1C(=O)O` (stereo partly shown) [Compound 176a, 6-(8-(benzo[d]thiazol-2-ylcarbamoyl)-3,4-dihydroisoquinolin-2(1H)-yl)-3-(3-(((1r,4r)-4-(2-(4-(3-(2,6-dioxopiperidin-3-yl)-1-methyl-1H-indazol-6-yl)piperazin-1-yl)-2-oxoethyl)cyclohexyl)oxy)-2-methylphenyl)picolinic acid], for which the “Ymin (24 h)” value (24 h) is “B (50% ≤ Ymin < 70%)”. Moreover, the DC50 (24 h, read-out: EC50 (24 h)) was under 100 nM.

Regarding `Cc1c(O[C@H]2CC[C@H](C[C@@H](C)CN3CCN(c4ccc5c(C6CCC(=O)NC6=O)nn(C)c5c4)CC3)CC2)cccc1-c1ccc(N2CCc3cccc(C(=O)Nc4nc5ccccc5s4)c3C2)nc1C(=O)O` (single isomer, unassigned) [Compound 282a], under “24 h”, the “Ymin (24 h)” value is on record as “A (Ymin < 50%)”. Further, the DC50 (24 h, read-out: EC50 (24 h)) is under 100 nM.

Consider `Cc1c(O[C@H]2CC[C@H](CCCCN3CCC[C@H](c4ccc5c(C6CCC(=O)NC6=O)nn(C)c5c4)C3)CC2)cccc1-c1ccc(N2CCc3cccc(C(=O)Nc4nc5ccccc5s4)c3C2)nc1C(=O)O` (single isomer, unassigned) [Compound 352a], for which the “Ymin (24 h)” value (24 h) is “A (Ymin < 50%)”. Besides, the DC50 (24 h, read-out: EC50 (24 h)) was under 100 nM.

With `Cc1c(O[C@H]2CC[C@H]([C@H](C)CCN3CCN(c4ccc5c(C6CCC(=O)NC6=O)nn(C)c5c4)CC3)CC2)cccc1-c1ccc(N2CCc3cccc(C(=O)Nc4nc5ccccc5s4)c3C2)nc1C(=O)O` (single isomer, unassigned) [Compound 310a], the “Ymin (24 h)” value (24 h) was “A (Ymin < 50%)”. Also, the DC50 (24 h, read-out: EC50 (24 h)) is under 100 nM.

On to `Cc1c(O[C@H]2CC[C@H](CCCCN3CCC(Oc4ccc5c(C6CCC(=O)NC6=O)nn(C)c5c4)CC3)CC2)cccc1-c1ccc(N2CCc3cccc(C(=O)Nc4nc5ccccc5s4)c3C2)nc1C(=O)O` (stereo partly shown) [Compound 326a, 6-(8-(benzo[d]thiazol-2-ylcarbamoyl)-3,4-dihydroisoquinolin-2(1H)-yl)-3-(3-(((1s,4r)-4-(4-(4-((3-(2,6-dioxopiperidin-3-yl)-1-methyl-1H-indazol-6-yl)oxy)piperidin-1-yl)butyl)cyclohexyl)oxy)-2-methylphenyl)picolinic acid], for which the “Ymin (24 h)” value (24 h) is “A (Ymin < 50%)”. The DC50 (24 h, read-out: EC50 (24 h)) is under 100 nM.

With `Cc1c(OCCC2CCN(CC(=O)N3CCN(c4ccc5c(C6CCC(=O)NC6=O)nn(C)c5c4)CC3)CC2)cccc1-c1ccc(N2CCc3cccc(C(=O)Nc4nc5ccccc5s4)c3C2)nc1C(=O)O` (stereo not shown) [Compound 143, 6-(8-(benzo[d]thiazol-2-ylcarbamoyl)-3,4-dihydroisoquinolin-2(1H)-yl)-3-(3-(2-(1-(2-(4-(3-(2,6-dioxopiperidin-3-yl)-1-methyl-1H-indazol-6-yl)piperazin-1-yl)-2-oxoethyl)piperidin-4-yl)ethoxy)-2-methylphenyl)picolinic acid], for the setting “6 h”, the “Ymin (6 h)” value is “A (Ymin < 50%)”. Under “24 h”, the “Ymin (24 h)” value is given as “A (Ymin < 50%)”. Also, the DC50 (6 h, read-out: EC50 (6 h)) is under 100 nM and the DC50 (24 h, read-out: EC50 (24 h)) was under 100 nM.

With `Cc1c(O[C@H]2CC[C@H](CCCN3CCC(Oc4ccc5c(C6CCC(=O)NC6=O)nn(C)c5c4)CC3)CC2)cccc1-c1ccc(N2CCc3cccc(C(=O)Nc4nc5ccccc5s4)c3C2)nc1C(=O)O` (stereo partly shown) [Compound 337a, 6-(8-(benzo[d]thiazol-2-ylcarbamoyl)-3,4-dihydroisoquinolin-2(1H)-yl)-3-(3-(((1s,4r)-4-(3-(4-((3-(2,6-dioxopiperidin-3-yl)-1-methyl-1H-indazol-6-yl)oxy)piperidin-1-yl)propyl)cyclohexyl)oxy)-2-methylphenyl)picolinic acid], under “24 h”, the “Ymin (24 h)” value is reported as “A (Ymin < 50%)”. In addition, the DC50 (24 h, read-out: EC50 (24 h)) is under 100 nM.

On to `Cc1c(O[C@H]2CC[C@H](CCN3CCN(c4ccc5c(C6CCC(=O)NC6=O)nn(C)c5c4)CC3)CC2)cccc1-c1ccc(N2CCc3cccc(C(=O)Nc4nc5ccccc5s4)c3C2)nc1C(=O)O` (stereo partly shown) [Compound 211a, 6-(8-(benzo[d]thiazol-2-ylcarbamoyl)-3,4-dihydroisoquinolin-2(1H)-yl)-3-(3-(((1r,4r)-4-(2-(4-(3-(2,6-dioxopiperidin-3-yl)-1-methyl-1H-indazol-6-yl)piperazin-1-yl)ethyl)cyclohexyl)oxy)-2-methylphenyl)picolinic acid], for which the “Ymin (24 h)” value (24 h) was “B (50% ≤ Ymin < 70%)”. The DC50 (24 h, read-out: EC50 (24 h)) is under 100 nM.

As for `Cc1c(O[C@H]2CC[C@H](CCCCN3CCN(c4cccc5c(C6CCC(=O)NC6=O)nn(C)c45)CC3)CC2)cccc1-c1ccc(N2CCc3cccc(C(=O)Nc4nc5ccccc5s4)c3C2)nc1C(=O)O` (stereo partly shown) [Compound 204a, 6-(8-(benzo[d]thiazol-2-ylcarbamoyl)-3,4-dihydroisoquinolin-2(1H)-yl)-3-(3-(((1s,4r)-4-(4-(4-(3-(2,6-dioxopiperidin-3-yl)-1-methyl-1H-indazol-7-yl)piperazin-1-yl)butyl)cyclohexyl)oxy)-2-methylphenyl)picolinic acid], under “24 h”, the “Ymin (24 h)” value is listed as “B (50% ≤ Ymin < 70%)”. Moreover, the DC50 (24 h, read-out: EC50 (24 h)) was under 100 nM.

The record behind these values is patent publication US20240238423A9, “TETRAHYDROISOQUINOLINE HETEROBIFUNCTIONAL BCL-XL DEGRADERS” (Treeline Biosciences, Inc., priority 2022, published 2024).
